In patent publication EP4631941A1 (Jiangsu Tasly Diyi Pharmaceutical Co., Ltd., priority 2022, dated 2024):
pIC50: −log10 of the molar value. Counter-ions that a name gives are not always drawn.

Target: T1, DYRK2 kinase (Homo sapiens, UniProt Q92630)
T1 sequence (Q92630 1-601): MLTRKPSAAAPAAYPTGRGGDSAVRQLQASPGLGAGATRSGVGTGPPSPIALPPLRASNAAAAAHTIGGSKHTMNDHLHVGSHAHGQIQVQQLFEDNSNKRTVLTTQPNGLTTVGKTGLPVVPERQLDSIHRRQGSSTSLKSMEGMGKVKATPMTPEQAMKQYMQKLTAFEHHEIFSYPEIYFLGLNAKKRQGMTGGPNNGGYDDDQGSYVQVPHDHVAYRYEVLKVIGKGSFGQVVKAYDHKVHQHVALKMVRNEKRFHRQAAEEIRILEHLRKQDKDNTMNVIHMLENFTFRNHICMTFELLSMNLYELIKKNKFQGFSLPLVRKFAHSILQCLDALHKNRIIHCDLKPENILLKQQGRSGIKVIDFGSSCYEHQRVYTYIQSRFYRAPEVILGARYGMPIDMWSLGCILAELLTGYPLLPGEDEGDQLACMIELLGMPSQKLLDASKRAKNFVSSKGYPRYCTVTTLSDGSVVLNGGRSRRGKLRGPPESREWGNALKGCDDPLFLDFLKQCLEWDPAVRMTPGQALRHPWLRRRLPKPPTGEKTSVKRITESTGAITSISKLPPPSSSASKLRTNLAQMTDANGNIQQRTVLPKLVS
Test: DYRK2 kinase activity analysis assay (33P-ATP, DYRKtide substrate, P81 filter paper)
Assay type: biochemical
Details: 2 hours at room temperature, read-out: IC50

pIC50	Compound
6.45	Cc1cnc(Nc2ccc(C(=O)N3CCNCC3)cn2)nc1-c1ccc2scnc2c1 [Example 5, (6-((4-(benzothiazole-5-yl)-5-methylpyrimidine-2-yl)amino)pyridine-3-yl)(piperazine-1-yl)ketone hydrochloride]
6.72	O=C(c1ccc(Nc2nccc(-c3ccc4scnc4c3)n2)nc1)N1CCNCC1 [Example 11, (6-((4-(benzothiazole-5-yl)pyrimidine-2-yl)amino)pyridine-3-yl)(piperazine-1-yl)ketone hydrochloride]
7.15	CC(C)(C)OC(=O)N1CCN(C(=O)c2ccc(Nc3ncc(F)c(-c4ccc5scnc5c4)n3)nc2)CC1 [Example 19, tert-butyl 4-(6-((4-(benzothiazole-5-yl)-5-fluoropyrimidine-2-yl)amino)nicotinoyl)piperazine-1-carboxylate]
7.54	CCN1CCN(C(=O)c2ccc(Nc3ncc(F)c(-c4ccc5sc(N(CC)CC)nc5c4)n3)cn2)CC1 [Example 33, (5-((4-(2-(diethylamino)benzothiazole-5-yl)-5-fluoropyrimidine-2-yl)amino)pyridine-2-yl)(4-ethylpiperazine-1-yl)ketone]
7.35	CCN(CC)c1nc2cc(-c3nc(Nc4ccc(C(=O)N5CCN(C(C)C)CC5)nc4)ncc3F)ccc2s1 [Example 34, (5-((4-(2-(diethylamino)benzothiazole-5-yl)-5-fluoropyrimidine-2-yl)amino)pyridine-2-yl)(4-isopropylpiperazine-1-yl)ketone]
7.96	CCN1CCN(C(=O)c2ccc(Nc3ncc(F)c(-c4ccc5sc(N(C)C)nc5c4)n3)cn2)CC1 [Example 29, (5-((4-(2-(dimethylamino)benzothiazole-5-yl)-5-fluoropyrimidine-2-yl)amino)pyridine-2-yl)(4-ethylpiperazine-1-yl)ketone]
6.57	Cc1cnc(Nc2ccc(C(=O)N3CCN(C(=O)OC(C)(C)C)CC3)cn2)nc1-c1ccc2scnc2c1 [Example 4, tert-butyl 4-(6-((4-(benzothiazole-5-yl)-5-methylpyrimidine-2-yl)amino)nicotinoyl)piperazine-1-carboxylate]
6.67	Fc1cnc(Nc2ccc(CN3CCNCC3)cn2)nc1-c1ccc2scnc2c1 [Example 13, 4-(benzothiazole-5-yl)-5-fluoro-N-(5-(piperazine-1-methylene)pyridine-2-yl)pyrimidine-2-amine hydrochloride]
7.46	CCN(CC)c1nc2cc(-c3nc(Nc4ccc(C(=O)N5CCNCC5)cn4)ncc3F)ccc2s1 [Example 28, (6-((4-(2-(diethylamino)benzothiazole-5-yl)-5-fluoropyrimidine-2-yl)amino)pyridine-3-yl)(piperazine-1-yl)ketone hydrochloride]
6.20	c1cc(-c2ccc3scnc3c2)nc(Nc2ccc(CN3CCNCC3)cn2)n1 [Example 8, 4-(benzothiazole-5-yl)-N-(5-(piperazine-1-methylene)pyridine-2-yl)pyrimidine-2-amine hydrochloride]
6.11	COc1cnc(Nc2ccc(C(=O)N3CCNCC3)cn2)nc1-c1ccc2scnc2c1 [Example 6, (6-((4-(benzothiazole-5-yl)-5-methoxypyrimidine-2-yl)amino)pyridine-3-yl)(piperazine-1-yl)k etone hydrochloride]
7.25	O=C(c1ccc(Nc2ncc(F)c(-c3ccc4scnc4c3)n2)nc1)N1CCN(c2ccccc2)CC1 [Example 17, (6-((4-(benzothiazole-5-yl)-5-fluoropyrimidine-2-yl)amino)pyridine-3-yl)(4-phenylpiperazine-1-yl)ketone]
5.98	CCN1CCN(C(=O)c2cnc(Nc3ncc(F)c(-c4ccc5scnc5c4)n3)nc2)CC1 [Example 21, (2-((4-(benzothiazole-5-yl)-5-fluoropyrimidine-2-yl)amino)pyrimidine-5-yl)(4-ethylpiperazine-1-yl)ketone]
7.00	CC(C)(C)OC(=O)N1CCN(C(=O)c2ccc(Nc3nccc(-c4ccc5scnc5c4)n3)nc2)CC1 [Example 10, tert-butyl 4-(6-((4-(benzothiazole-5-yl)pyrimidine-2-yl)amino)nicotinoyl)piperazine-1-carboxylate]
7.89	CC(C)N1CCN(C(=O)c2ccc(Nc3ncc(F)c(-c4ccc5sc(N(C)C)nc5c4)n3)cn2)CC1 [Example 30, (5-((4-(2-(dimethylamino)benzothiazole-5-yl)-5-fluoropyrimidine-2-yl)amino)pyridine-2-yl)(4-isopropylpiperazine-1-yl)ketone]
6.30	CCN1CCN(C(=O)c2ccc(Nc3ncc(C)c(-c4ccc5scnc5c4)n3)nc2)CC1 [Example 3, (6-((4-(benzothiazole-5-yl)-5-methylpyrimidine-2-yl)amino)pyridine-3-yl)(4-ethylpiperazine-1-yl)ketone]
7.66	CCN1CCN(C(=O)c2ccc(Nc3ncc(F)c(-c4ccc5scnc5c4)n3)nc2)CC1 [Example 14, (6-((4-(benzothiazole-5-yl)-5-fluoropyrimidine-2-yl)amino)pyridine-3-yl)(4-ethylpiperazine-1-yl)ketone]
6.27	CC(C)(C)OC(=O)N1CCN(C(=O)c2cnc(Nc3ncc(F)c(-c4ccc5scnc5c4)n3)nc2)CC1 [Example 22, tert-butyl 4-(2-((4-(benzothiazole-5-yl)-5-fluoropyrimidine-2-yl)amino)pyrimidine-5-carbonyl)piperazine-1-c arboxylate]
8.05	CN(C)c1nc2cc(-c3nc(Nc4ccc(C(=O)N5CCNCC5)nc4)ncc3F)ccc2s1 [Example 32, (5-((4-(2-(dimethylamino)benzothiazole-5-yl)-5-fluoropyrimidine-2-yl)amino)pyridine-2-yl)(piperazine-1-yl)ketone hydrochloride]
7.04	CCOC(=O)N1CCN(C(=O)c2ccc(Nc3ncc(F)c(-c4ccc5nc(N(C)C)sc5c4)n3)nc2)CC1 [Example 38, ethyl 4-(6-((4-(2-(dimethylamino)benzothiazole-6-yl)-5-fluoropyrimidine-2-yl)amino)nicotinoyl)piperazine-1-carboxylate]
6.16	O=C(c1cnc(Nc2ncc(F)c(-c3ccc4scnc4c3)n2)nc1)N1CCNCC1 [Example 23, (2-((4-(benzothiazole-5-yl)-5-fluoropyrimidine-2-yl)amino)pyrimidine-5-yl)(piperazine-1-yl)k etone hydrochloride]
7.17	CCN1CCN(C(=O)c2ccc(Nc3nccc(-c4ccc5scnc5c4)n3)nc2)CC1 [Example 9, (6-((4-(benzothiazole-5-yl)pyrimidine-2-yl)amino)pyridine-3-yl)(4-ethylpiperazine-1-yl)ketone]
7.82	CCN1CCN(C(=O)c2ccc(Nc3ncc(F)c(-c4ccc5scnc5c4)n3)cn2)CC1 [Example 24, (5-((4-(benzothiazole-5-yl)-5-fluoropyrimidine-2-yl)amino)pyridine-2-yl)(4-ethylpiperazine-1-yl)ketone]
5.83	Cc1cnc(Nc2ccc(CN3CCN(C(C)C)CC3)cn2)nc1-c1ccc2scnc2c1 [Example 1, 4-(benzothiazole-5-yl)-N-(5-((4-isopropylpiperazine-1-yl)methyl)pyridine-2-yl)-5-methylpyri midine-2-amine]
6.11	COc1cnc(Nc2ccc(CN3CCNCC3)cn2)nc1-c1ccc2scnc2c1 [Example 7, 4-(benzothiazole-5-yl)-5-methoxy-N-(5-(piperazine-1-ylmethyl)pyridine-2-yl)pyrimidine-2-amine hydrochloride]

Compound	pIC50
CC(=O)N1CCN(C(=O)c2ccc(Nc3ncc(F)c(-c4ccc5scnc5c4)n3)nc2)CC1 [Example 15, 1-(4-(6-((4-(benzothiazole-5-yl)-5-fluoropyrimidine-2-yl)amino)nicotinoyl)piperazine-1-yl)ethyl-1-one]	7.55
CCN1CCN(Cc2ccc(Nc3ncc(F)c(-c4ccc5scnc5c4)n3)nc2)CC1 [Example 12]	6.37
CCOC(=O)N1CCN(C(=O)c2ccc(Nc3ncc(F)c(-c4ccc5scnc5c4)n3)nc2)CC1 [Example 18, ethyl 4-(6-((4-(benzothiazole-5-yl)-5-fluoropyrimidine-2-yl)amino)nicotinoyl) piperazine-1-carboxylate]	7.54
Cc1cnc(Nc2ccc(CN3CCNCC3)cn2)nc1-c1ccc2scnc2c1 [Example 2, hydrochloride]	5.85

Same assay, conditions: IC50 (nM), 2 hours at room temperature

Compound	IC50
CN(C)c1nc2ccc(-c3nc(Nc4ccc(C(=O)N5CCN(c6ccccc6)CC5)cn4)ncc3F)cc2s1 [Example 37, (6-((4-(2-(dimethylamino)benzothiazole-6-yl)-5-fluoropyrimidine-2-yl)amino)pyridine-3-yl)(4 - arylpiperazine-1-yl)ketone]	683 nM
CN(C)c1nc2ccc(-c3nc(Nc4ccc(C(=O)N5CCN(C(=O)C6CC6)CC5)cn4)ncc3F)cc2s1 [Example 36]	16 nM
CC(=O)N1CCN(C(=O)c2ccc(Nc3ncc(F)c(-c4ccc5nc(N(C)C)sc5c4)n3)nc2)CC1 [Example 35, 1-(4-(6-((4-(2-(dimethylamino)benzothiazole-6-yl)-5-fluoropyrimidine-2-yl)amino)nicotinoyl)piperazine-1-yl)ethyl-1-one]	22 nM
CN(C)c1nc2cc(-c3nc(Nc4ccc(C(=O)N5CCN(C(=O)OC(C)(C)C)CC5)nc4)ncc3F)ccc2s1 [Example 31]	590 nM
